Data reported in patent US20240216465A1, “METHOD FOR TREATING REFRACTORY BRAIN TUMOR” (National Yang Ming Chiao Tung University, priority 2023, published 2024).
Where a SMILES comes first, the peptide text is derived from it. The star is where a group is joined. Cbz = O=C(OCc1ccccc1)*

Assays:
[1] = system: Slug; assay: Western blot of Slug in GBM cells; format: cell-based, human; details: MG132 10 μM 30 mins pretreatment, then GMI 0.6 μM 3 h
Procedure: FIGS. 10A-10D show GMI induces Slug degradation in GBM cells. […] The mRNA level of Slug was measured using qPCR.
Cell extracts (30 μg) were then subjected to one-dimensional SDS-PAGE (8-12% separating gel) electrophoresis and were transferred to a PVDF membrane (0.22 μm, Millipore) by using a transfer apparatus (Bio-Rad, Richmond, CA). Membranes were blocked with 5% BSA in TBST buffer containing 0.05% Tween20. The expressions of proteins were identified by indicated antibodies. The expression of tubulin as an internal control. The indicated bands on the PVDF membrane were quantified using densitometry analysis by ImageJ software (National Institute of Mental Health, Bethesda, MD) and compared to results of the control group.

[2] = Rat weight and serum AST, ALT, BUN, creatinine in C6-bearing rats; format: in vivo; details: rat sera, TMZ 30 mg/kg ip
Procedure: FIGS. 7A-7F show GMI combined with TMZ suppressed tumorigenesis in C6-bearing rats. FIG. 7A indicates Schematic design of the in vivo post combined therapy of GMI and TMZ in C6-bearing rats. The tumor volume in rat received GMI (0.6 mg/kg) and […]. […] FIG. 7C indicates the tumor volume was measured; each bar represents the mean+SD. […] FIGS. 7E and 7F show the AST and ALT (hepatic function: shown in FIG. 7E) as well as BUN and creatinine (renal function; shown in FIG. 7F) of rat sera were analyzed.
Five days after tumor implantation surgery, rats were randomly assigned into four group (6 animals/group) to be treated with different drugs every other day for 4 times, i.e. on day 5, 7, 9, 11. • Group 1 (control): intravenous administration of saline. • Group 2 (GMI): intravenous (iv) administration of GMI (0.6 mg/Kg) • Group 3 (TMZ): intraperitoneal (ip) administration of TMZ (30 mg/Kg) • Group 4 (GMI+TMZ): combination of GMI (iv, 0.6 mg/Kg) and TMZ (ip, 30 mg/Kg)
MRI imaging acquisition was performed on day 13 and a half of the animals in each group were sacrificed on day 15 for immunohistochemistry study. After tumor volume was measured, specimens from the animals in the histology group were subjected to other histological evaluations described as follows.

Structure (SMILES) | GMI-induced Slug degradation [1] | AST/ALT ([2]; GMI 0.6 mg/kg iv) | BUN [2]
CC(C)C[C@@H](C=O)NC(=O)[C@H](CC(C)C)NC(=O)[C@H](CC(C)C)NC(=O)OCc1ccccc1 [MG132] (Cbz-Leu-Leu-Leu-aldehyde) | counteracted GMI-induced Slug degradation |  | 
Cn1nnc2c(C(N)=O)ncn2c1=O [TMZ, Temozolomide] |  | increased AST/ALT expression | slightly increased BUN expression
